Data set [1] deals with human red blood cells (HRBCs). Particulars: for MHC5, minimal hemolytic concentration that results in 5% human erythrocyte hemolysis: 2% fresh human red blood cells in saline, 37 °C, 30 min, absorbance 540 nm, mean ± SD, n = 3; for TI, therapeutic index against C. albicans: TI = MHC5/MIC100 (C. albicans). The protocol: A 2% fresh human red blood cells (HRBCs) suspension was used in the hemolysis assay of c_AFPs.^[ [48], [50] ^] The c_AFPs solution was prepared in saline with a concentration range of 0–0.5 mg mL^−1. Then, 2% HRBCs suspension was incubated with different concentrations of c_AFPs in a 96‐well plate (37 °C, 30 min). […] Saline was used as a negative control, and Triton X‐100 (1%) was used as a positive control. Each experiment was replicated three times.

Data set [2] relates to fluconazole‐resistant C. albicans. Particulars: 1 × 10^6 CFU mL^−1, 28 °C, 12 h, then plated on SD agar 37 °C, 16 h.
Description: Fluconazole‐resistant C. albicans was prepared following the established methods.^[ [23], [51], [52] ^]
The subject of data set [3] is C. albicans. Nature of the data set: Resistance induction by continuous passaging culture. Particulars: for change of MIC on continuous passaging: SD broth, 24 h per generation, 28 °C. The class given is cell-based, Candida albicans. How it is done:
The resistance tendency of c_AFPs developed in C. albicans was assessed utilizing a continuous passaging culture.^[ [23], [51] ^] […] Subsequently, 20 µL of culture was transferred to a fresh SD broth with the same concentration of c_AFPs/antibiotic. The concentrations of c_AFPs/antibiotic in the SD broth were doubled every 10 generations, and the MICs of the c_AFPs/antibiotic were detected every 5 generations. Each 24‐hour incubation was considered one generation. PBS (pH 6.0) was used as a blank control, and fluconazole was used as an antibiotic control. Each experiment was performed three times.

For data set [4], the system named is C. albicans. Conditions: 0.12 mg kg^−1 intraperitoneally. The protocol:
The systemic C. albicans infection mouse model was established following the reported reference.^[ [22] ^] Cyclophosphamide (150 mg kg^−1 d^−1) was first injected intraperitoneally for 3 days to disrupt the immunity of female Kunming mice (Experimental Animal Center of Zhengzhou University, SCXK Yu 2021–0009). […] The injections were given once every 24 h during the first week and once every 48 h during the second week. Survival rates and body weights of the mice in each group were recorded during treatment. At 0, 7, and 14 d of treatment, duplicate samples (n = 3) of the spleen and thymus were collected from each group to determine the immune organ index.^[ [54] ^] The ratio of organ weight to body weight was adopted to describe the immune organ index. At 14 d of treatment, liver, lung, kidney, and spleen tissues were collected from each group of mice and immersed in 4% paraformaldehyde fixative. Subsequently, the tissue samples were embedded in paraffin, followed by sectioned and stained with hematoxylin‐eosin (H&E). Finally, optical microscopy was used to observe the pathological changes in the organ tissues of the mice.

Setting [5] is: Day 7, fluconazole group, n = 3.

Like-named read-outs stand apart in the source and are kept apart here. No end group written: not given here.

With RLWRIVLIRRAK-NH2 [AFP‐10], in data set [1], the “MHC5, minimal hemolytic concentration that results in 5% human erythrocyte hemolysis” value (“MHC5 … in 5% human erythrocyte hemolysis” for short) is on record as 48.11 ± 1.54 µg/mL and the “TI, therapeutic index against C. albicans” value (“TI, therapeutic index” below) was found to be 13.71. The “minimum fungicidal concentration (MFC) against fluconazole‐resistant C. albicans” value (“minimum fungicidal concentration (MFC)” below) in data set [2] is 2 × MIC.
What is called MIC is the lowest concentration found to suppress growth. Regarding `OC(Cn1cncn1)(Cn1cncn1)c1ccc(F)cc1F` [fluconazole], the “change of MIC on continuous passaging” value in the data set with C. albicans [3] (25th generation) is “increased twofold”; with C. albicans [3] (40th generation) it was “eightfold”; with C. albicans [3] (first 20 generations, 0.5 × MIC doubled every 10 generations), “remained unchanged”. In addition, the minimum inhibitory concentration (MIC) in the data set with C. albicans [3] (Candida albicans, read-out: MIC of fluconazole against C. albicans) was 1.9 µg/mL. In the data set on C. albicans [4] (setting [5]), this compound returned a splenic index of 9.89 mg/g. Moreover, the thymic index stood at 2.45 mg/g in the data set on C. albicans [4] (setting [5]) and 5.16 mg/g in the data set on C. albicans [4] (Day 14, fluconazole group, n = 3). In the data set with C. albicans [4] (fluconazole group, n = 10), the “average increased weight after 14 days of treatment” value is 8.16 g. In addition, the “minimum fungicidal concentration (MFC)” value in data set [2] is reported as greater than 50 × MIC.
For RLWRIVLIRKAR-NH2 [AFP‐11], in data set [1], the “MHC5 … in 5% human erythrocyte hemolysis” value was determined as 46.51 ± 2.24 µg/mL and the “TI, therapeutic index” value was found to be 6.22. In addition, the “minimum fungicidal concentration (MFC)” value in data set [2] was determined as 8 × MIC.
Take RLWRIVVIRRAR-NH2 [AFP‐8]: in data set [1], the “MHC5 … in 5% human erythrocyte hemolysis” value is reported as 41.81 ± 1.88 µg/mL and the “TI, therapeutic index” value is reported as 5.45. In data set [2], the “minimum fungicidal concentration (MFC)” value is given as 4 × MIC.
As to VRWRIRLIRKLA-NH2 [AFP‐13], in data set [1], the “MHC5 … in 5% human erythrocyte hemolysis” value turned out to be 99.50 ± 3.28 µg/mL and the “TI, therapeutic index” value came to 15.89. Moreover, the “minimum fungicidal concentration (MFC)” value in data set [2] was 2 × MIC.

These data come from article PMC11967820, “Deep Learning Combined with Quantitative Structure‒Activity Relationship Accelerates De Novo Design of Antifungal Peptides” (Advanced Science, 2025).
